Where “and” joins values, the source holds several entries; their conditions need not be identical. Identical values can stand only once.
Legend:
[1] = system: Leishmania donovani; test: Leishmania intramacrophage assay; format: functional, organism-based; details: for IC50: Leishmania donovani
[2] = In vitro enzyme assay to detect hydrolysis of chlorophenol red-beta-D-[…] directly proportional to the number of Toxoplasma stably expressing beta-galactosidase; format: functional, organism-based, Toxoplasma gondii; details: for IC50: Toxoplasma gondii
[3] = system: Plasmodium falciparum; test: Calibr Malaria Delayed Death Assay SOP; format: functional, organism-based; details: for IC50: Plasmodium falciparum
[4] = microbe, parasite or virus in culture; details: Mycobacterium tuberculosis, 96 h, read-out: pIC50 (converted)
[5] = microbe, parasite or virus in culture; details: Mycobacterium tuberculosis, 72 h, read-out: pIC50 (converted)
[6] = system: Schistosoma mansoni; test: High throughput screening of compounds against Schistosoma mansoni motility; format: functional; set-up: dose or concentration left out as unconfirmed
[7] = molecular target: T1, Histidine--tRNA ligase (Leishmania infantum, UniProt A4I591); test: Leishmania infantum Histidine tRNA synthetase (LdHisRS); format: functional
T1 sequence (A4I591 whole entry): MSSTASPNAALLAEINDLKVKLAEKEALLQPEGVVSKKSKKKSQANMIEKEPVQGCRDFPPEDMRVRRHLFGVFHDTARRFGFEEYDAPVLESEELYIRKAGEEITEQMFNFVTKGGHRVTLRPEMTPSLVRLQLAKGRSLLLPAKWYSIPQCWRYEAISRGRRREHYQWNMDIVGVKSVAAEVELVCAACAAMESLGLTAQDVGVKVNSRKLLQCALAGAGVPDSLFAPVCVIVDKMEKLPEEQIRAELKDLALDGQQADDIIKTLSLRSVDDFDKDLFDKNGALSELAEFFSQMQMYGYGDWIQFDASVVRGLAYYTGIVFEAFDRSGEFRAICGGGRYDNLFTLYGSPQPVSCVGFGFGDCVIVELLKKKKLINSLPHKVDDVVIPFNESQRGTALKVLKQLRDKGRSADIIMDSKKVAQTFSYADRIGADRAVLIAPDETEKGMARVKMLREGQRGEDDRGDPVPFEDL

[8] = molecular target: ClpP1P2 (Mycobacterium tuberculosis (strain ATCC 25618 / H37Rv), UniProt P9WPC3+P9WPC5); test: in vitro assay to detect presence of AMC directly proportional to the activity of ClpP1P2. GHDDI collaboration.; format: functional
[9] = molecular target: Tryptophan--tRNA ligase (Mycobacterium tuberculosis (strain ATCC 25618 / H37Rv), UniProt P9WFT3); test: Biochemical assay for Mt-TrpRS; format: functional
Tryptophan--tRNA ligase, sequence (P9WFT3 whole entry): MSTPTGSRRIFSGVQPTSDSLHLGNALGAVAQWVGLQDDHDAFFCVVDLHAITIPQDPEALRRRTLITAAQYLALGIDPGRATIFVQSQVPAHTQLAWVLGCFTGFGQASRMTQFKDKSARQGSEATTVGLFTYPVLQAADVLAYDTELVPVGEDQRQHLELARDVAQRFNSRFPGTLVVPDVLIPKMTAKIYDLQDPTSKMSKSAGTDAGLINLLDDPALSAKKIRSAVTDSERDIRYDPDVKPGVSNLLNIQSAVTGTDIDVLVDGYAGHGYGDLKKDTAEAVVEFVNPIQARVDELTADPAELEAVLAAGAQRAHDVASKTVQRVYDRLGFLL

ClpP1P2, sequence (P9WPC5 whole entry): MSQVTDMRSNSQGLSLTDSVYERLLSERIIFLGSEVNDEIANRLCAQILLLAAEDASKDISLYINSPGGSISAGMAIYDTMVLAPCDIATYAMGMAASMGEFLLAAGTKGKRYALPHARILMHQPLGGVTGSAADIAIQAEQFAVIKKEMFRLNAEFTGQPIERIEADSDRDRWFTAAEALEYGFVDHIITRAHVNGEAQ
ClpP1P2, sequence (P9WPC3 whole entry): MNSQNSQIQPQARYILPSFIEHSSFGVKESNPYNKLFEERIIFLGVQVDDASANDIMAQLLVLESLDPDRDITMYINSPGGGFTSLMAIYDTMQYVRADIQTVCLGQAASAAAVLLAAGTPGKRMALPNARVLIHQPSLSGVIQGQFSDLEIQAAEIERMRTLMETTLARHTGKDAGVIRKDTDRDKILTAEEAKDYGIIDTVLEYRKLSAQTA

Row | Compound | pIC50 [1] | IC50 [1] | also measured
1 | Nc1nccc(N2CCC(c3cc(Cc4ccccc4)n[nH]3)CC2)n1 | 4.363 | 42 µM | pIC50 [2]: 4.837; IC50 [2]: 20.2 µM
2 | CN1CCN(CC(NCc2ccc(F)c(F)c2)c2ccccc2)CC1 (centres undefined) |  | 11.3 µM | pIC50 [3]: 6.278; IC50 [3]: 0.618 µM; IC50 [4]: > 50.1 µM; IC50 [5]: 17.1 µM
3 | c1ccc(C2CCCN(c3ncnc4c3CCNC4)CC2)cc1 (centres undefined) | 4.655 | 18.1 µM | IC50 [4]: > 50.1 µM; IC50 [5]: > 50.1 µM
4 | CC(C)c1nccc(C2(c3ccccc3Cl)CCNCC2)n1 |  | 26.3 µM | pIC50 [3]: 6.087; IC50 [3]: 0.789 µM
5 | Clc1ccccc1C1(c2ccnc(-c3ccncc3)n2)CCNCC1 | 4.623 | 18.6 µM | pIC50 [3]: 6.636; IC50 [3]: 0.264 µM
6 | CC(C)(C)c1nccc(C2(c3ccccc3Cl)CCNCC2)n1 |  | 7.19 µM | pIC50 [2]: 4.939 and 5.272; pIC50 [3]: 6.385; IC50 [3]: 0.667 µM
7 | COc1cc(OC)cc(-c2cccc3c2OC(CN)C3)c1 (centres undefined) | 4.734 | 18.3 µM | IC50 [4]: 20 µM; IC50 [5]: 1.33 µM
8 | Cc1cc2nc(-c3cn(C4CCNCC4)nn3)[nH]c2cc1C | 4.64 | 21.2 µM | pIC50 [3]: 6.549; IC50 [3]: 0.273 µM
9 | Cc1cc(N2CCC(N(C)C(=O)c3ccccc3)CC2)nc(C)n1 |  | > 50.1 µM | Percent Effect [6]: -7.781%
10 | Cc1nc(CCN)cc(N2CCOc3ccc(Cl)cc3C2)n1 | 4.773 | 11.2 µM | IC50 [7]: 41.7 µM and 34.2 µM
11 | c1ccc(C2=NOC3(CCN(Cc4c[nH]c5ccccc45)CC3)C2)cc1 | 4.869 | 18.3 µM | pIC50 [2]: 5.08; IC50 [2]: 6.84 µM
12 | Cc1cc(N2CCCCCC2)n2nc(C)c(C)c2n1 |  | > 50.1 µM | Percent Effect [6]: -21.59%
13 | Clc1ccccc1C1(c2ccnc(C3CCCC3)n2)CCNCC1 |  | 6.68 µM | pIC50 [2]: 5.147; IC50 [2]: 13 µM; pIC50 [3]: 6.419; IC50 [3]: 0.399 µM
14 | Cc1ccc(CNC(CN2CCN(C)CC2)c2ccccc2)cc1 (centres undefined) | 5.055 | 12.8 µM | pIC50 [3]: 6.589; IC50 [3]: 0.247 µM
15 | CN(C)S(=O)(=O)c1ccc(-c2nc(C#N)c(NC3CCCCC3)o2)o1 |  | > 50.1 µM | IC50 [8]: > 100 µM
16 | N[C@@H]1CCC[C@@H](Oc2ccc(F)cc2Oc2cccc(F)c2)[C@@H]1O |  | > 50.1 µM | IC50 [9]: > 195 µM
17 | CCSc1cc(C(=O)NCc2ccccc2O)ccn1 |  | > 50.1 µM | Percent Effect [6]: -44.04%
18 | CC(C)c1nc(-c2cc(C(=O)NCCN(C)C)c3ccccn23)cs1.O=C(O)C(F)(F)F | 4.846 | 18.9 µM | IC50 [4]: > 50.1 µM; IC50 [5]: > 50.1 µM
19 | COc1ccc(C2=Nn3c(CCN)nnc3-c3ccccc3C2)cc1 | 4.676 | 17.9 µM | IC50 [7]: > 100 µM
20 | Clc1ccccc1C1(c2ccnc(CC3CC3)n2)CCNCC1 | 4.801 and 4.355 |  | pIC50 [3]: 6.68; IC50 [3]: 0.268 µM
21 | COc1cc(C)c(-c2ccc(F)c3c2OC(CN)C3)cc1C (centres undefined) | 4.996 | 7.27 µM | IC50 [4]: > 50.1 µM; IC50 [5]: > 50.1 µM
22 | COc1c(F)cc(-c2cccc3c2OC(CN)C3)cc1F (centres undefined) | 4.693 | 19.2 µM | IC50 [4]: 22.9 µM; IC50 [5]: 36.7 µM
23 | c1cnc(-c2nc(CN3CCCC(Cn4cncn4)C3)cs2)nc1 (centres undefined) |  | > 50.1 µM | 
24 | OCCN1CCC(F)(F)C2(CCN(c3cnccn3)C2)C1 (centres undefined) |  | > 50.1 µM | 
25 | CCN1CCC2(C=C(C(=O)N(C)C)c3ccccc32)CC1 |  | > 50.1 µM | 
26 | CCn1cnnc1CNc1nc(C)nc2scc(CC(C)C)c12 |  | > 50.1 µM | 
27 | Cc1ccc(N2CCC3(CN(CCO)CCC3(F)F)C2)nn1 (centres undefined) |  | > 50.1 µM | 
28 | Cc1cc2c(c(-c3cncc(C(=O)N4CCCC4)n3)c1)OC(CN)C2 (centres undefined) | 4.717 | 27.5 µM | 
29 | c1cc(CN2CCC3(CC2)CC(N2CCCC2)CO3)co1 (centres undefined) |  | > 50.1 µM | 

— ChEMBL document CHEMBL3988442, “University of Dundee, Small-Polar-MMV Screening Library” (2021)
